Assay results taken from patent USRE47267E1, “Pyridinecarboxamides as CXCR2 modulators” (Syntrix Biosystems, Inc., priority 2009, dated 2019).

Columns and labels:
CXCR2 [1] = biological target: T1, CXCR2 (Homo sapiens (Human), UniProt P25025); assay: Inhibition of GROα-mediated intracellular calcium release in human neutrophils (FLIPR-3 Ca2+ mobilization assay); type: cell-based; details: GROα 25 nM
Procedure: This assay measures intracellular calcium release via fluorescence as an indication of CXCR2 receptor activation by the physiologic agonist GROα. The assay is a Ca^2+ mobilization assay that measures changes in intracellular Ca^2+ with a FlexStation II scanning fluorometer using a FLIPR-3 Calcium Assay Kit (Molecular Devices, Sunnyvale, Calif.). The procedure is as follows: • 1. Human neutrophils were suspended in HBSS^− (without Ca^2+ and Mg^2+) containing 10 mM HEPES and FLIPR Calcium 3 dye (3.1×10^7 cells in total volume 1.7 mL). • 2. […] As controls, 2 μL of DMSO (1% final concentration) were added to other 2 tubes. • 3. Cells were incubated for 30 min at 37° C. • 4. After dye loading, tubes were centrifuged at 6,000 rpm for 1 min, supernatant was removed and cell pellet was re-suspended in 200 μL of HBSS^+ (with Ca^+ and Mg^2+) containing 10 mM HEPES. • 5. The compound or DMSO (control) was added again at the same concentrations that were used during cell loading. • 6. The cell suspension was aliquoted into a 96-well Reading Plate (Corning) in a volume of 90 μL (10^5 cells/well). The Compound Plate contained physiologic agonist (GROα in HBSS^−) or HBSS^− (control). • 7. […] The maximum change in fluorescence, expressed in arbitrary units over baseline (Max-Min) was used to determine the GROα response.
Briefly, human neutrophils were suspended in HBSS (without Ca^2+ and Mg^2+) containing 10 mM HEPES and FLIPR Calcium 3 dye (3.1×10^7 cells in total volume 1.7 mL). […] As controls, 2 μL of DMSO (1% final concentration) were added to 2 other tubes. Cells were incubated for 30 min at 37° C. After dye loading, tubes were centrifuged at 6,000 rpm for 1 min, supernatant was removed and the cell pellet was re-suspended in 200 μL of HBSS^+ (with Ca^2+ and Mg^2+) containing 10 mM HEPES. […] The cell suspension was aliquoted into a 96-well Reading Plate (Corning) in a volume of 90 μL (10^5 cells/well). […]
(§2) The maximum change in fluorescence, expressed in arbitrary units over baseline (Max-Min), was used to determine the GROα response.

Aqueous solubility = type: physicochemical
Description: (§1) The lipid based excipient Gelucire® 44/14 is a self-emulsifying drug delivery system (SEDDS) that is able to solubilize both SX-517 and SX-576 into aqueous solutions via micellular formation. […] Therefore, lipid-based emulsifiers are important excipients for the oral delivery of SX-576.

[2] = Crossover pharmacokinetic experiment in Beagle dogs; type: in vivo; details: for plasma level: dosed to Beagle dogs without excipient, data not shown
Procedure: In this study, male Beagle dogs (n=5) were dosed intravenously on study day 1 with SX-576 in dimethylformamide/PEG400/saline (40:40:20) at a dose level of 5 mg/kg and a dose volume of 0.5 mL/kg. Blood samples were taken predose, and at time points 30, 60, 90, 120, 180, 360, 540 and 720 minutes. The blood was collected in tubes containing K2EDTA as an anticoagulant, and the tubes were centrifuged and the plasma fractions collected and frozen. After a one-week washout period, the same Beagle dogs were dosed orally with SX-576 in lipid based excipient Gelucire® 44/14 (Gattefosse) at a dose level of 5 mg/kg. Blood samples were then taken and plasma fractions collected as previously described. Prior to analysis, the plasma samples were thawed and diluted 1:3 into acetonitrile containing 1 μM of compound 153 as an internal standard. The resulting samples were centrifuged and the supernatant analyzed by LC-MS monitoring in multiple reaction monitoring mode. The samples were run concomitantly with a calibration curve of SX-576 in the same internal standard solution.
as §1

CXCR2 [3] = biological target: T1, CXCR2; assay: β-arrestin recruitment to CXCR2 (β-galactosidase fragment complementation, DiscoveRx); details: for inhibition of β-arrestin recruitment following CXCR2 activation with IL-8: FIG. 2; for activity on β-arrestin complexation with CXCR2 in the absence of IL8: FIG. 3
CXCR2 [4] = biological target: T1, CXCR2; assay: In vitro agonist activity: intracellular calcium release in human neutrophils in the absence of GROα; type: cell-based
Procedure: This assay measures intracellular calcium release via fluorescence as an indication of CXCR2 receptor activation by the physiologic agonist GROα. The assay is a Ca^2+ mobilization assay that measures changes in intracellular Ca^2+ with a FlexStation II scanning fluorometer using a FLIPR-3 Calcium Assay Kit (Molecular Devices, Sunnyvale, Calif.). The procedure is as follows: • 1. Human neutrophils were suspended in HBSS^− (without Ca^2+ and Mg^2+) containing 10 mM HEPES and FLIPR Calcium 3 dye (3.1×10^7 cells in total volume 1.7 mL). • 2. […] As controls, 2 μL of DMSO (1% final concentration) were added to other 2 tubes. • 3. Cells were incubated for 30 min at 37° C. • 4. […] The cell suspension was aliquoted into a 96-well Reading Plate (Corning) in a volume of 90 μL (10^5 cells/well). […] After 15 sec of reading the basal level of fluorescence using the FlexStation II instrument, 10 μL of GROα or HBSS^− were automatically transferred from the Compound Plate into the Reading Plate (final concentration of GROα was 25 nM). • 8. Changes in fluorescence were monitored (λex=485 nm, λem=525 nm) every 5 s for 240 to 500 s at room temperature. • 9. The maximum change in fluorescence, expressed in arbitrary units over baseline (Max-Min) was used to determine the GROα response.
as §2

neutrophil influx [5] = assay: Murine air pouch model of neutrophil chemotaxis (p.o.); type: in vivo, male CD-1 mice; details: for total neutrophil counts in the blood: high doses, compared to control animals, data not shown
Procedure: Compounds 1 (SX-517) and 2 (SX-576) were also assayed in an in vivo air-pouch model of inflammation. SX-517 and SX-576 were able to attenuate neutrophil influx in the air-pouch model by about 50% at an oral dose of 0.2 and 0.05 mg/kg, respectively. […] More specifically, the procedure was performed by forming an air pouch on the backs of male CD-1 mice via the subcutaneous injection of air (2 mL). The next day, an additional subcutaneous injection of air (1.5 mL) was performed to reinflate the air pouch. The mice were given either vehicle control (Labrasol®) or test compound solubilized in Labrasol® via oral gavage. After 3 hours, either sterile phosphate buffered saline (PBS, 1 ml) or 2% carrageenan in sterile PBS (1 mL) was injected into the air pouch. After 4 hours, the mice were sedated with ketamine, and sacrificed by cervical dislocation. The exudate in the air pouch was collected by syringe, with an additional 2 mL wash with sterile PBS. The neutrophils were stained with trypan blue and counted on a hemocytometer under 20× magnification.

neutrophil influx [6] = assay: Murine air pouch model of neutrophil chemotaxis (i.v.); type: in vivo, male CD-1 mice; details: all tested dose levels 0.02, 0.05, 0.2 and 1.0 mg/kg, FIG. 6
Procedure: The procedure was performed by forming an air pouch on the backs of male CD-1 mice via the subcutaneous injection of air (2 mL). The next day, an additional subcutaneous injection of air (1.5 mL) was performed to reinflate the air pouch. The mice were given either vehicle control (dimethylformamide/PEG400/saline) or test compound solubilized in vehicle via tail vein injection. After 30 minutes, either sterile phosphate buffered saline (PBS, 1 ml) or 2% carrageenan in sterile PBS (1 mL) was injected into the air pouch. After 4 hours, the mice were sedated with ketamine, and sacrificed by cervical dislocation. The exudate in the air pouch was collected by syringe, with an additional 2 mL wash with sterile PBS. The neutrophils were stained with trypan blue and counted on a hemocytometer under 20× magnification.

[7] = tested on: ozone-induced pulmonary inflammation; assay: Ozone rat model of pulmonary inflammation; type: in vivo, Sprague-Dawley rats; details: 1 mg/kg i.v. at t=0, 5, 9 h, 1 ppm ozone 4 h
Procedure: Activity in this model of pulmonary inflammation would provide direct relevance towards the treatment of a number of pulmonary inflammatory diseases, including chronic obstructive pulmonary disease (COPD) and bronchopulmonary dysplasia (BPD). In this experiment, Sprague-Dawley rats (n=4 per cohort) were dosed intravenously at t=0 with either vehicle (negative and positive groups, dimethylformamide/PEG400/saline, 40:40:20) or SX-576 (1 mg/kg). The rats were then placed in air (negative group) or 1 ppm ozone (positive and SX-576 groups) for 4 hours. The rats were dosed again at t=5 and 9 hours. The rats were then sacrificed at t=24 hours, and the bronchoalveolar lavage fluid (BALF) was collected. The cells were spun down, stained with Wright-Giemsa and counted. In the negative groups, no neutrophils were observed when stained. As a measure of lung leakage/damage, protein levels were quantified in BALF by Bradford protein assay analysis.

CXCR2 [8] = biological target: T1, CXCR2; assay: Wash-resistant inhibition of GROα-mediated intracellular calcium release in isolated human neutrophils; type: cell-based; details: 0.4, 2 and 10 μM, 30 min incubation, washed; time points out to 6 hours; FIG. 1
Procedure: The cells were washed and resuspended in RPMI/2% serum (serum was obtained from the same donor as the neutrophils). The concentration of the neutrophil suspension was 10^7 cells/mL. […] The neutrophils were washed and resuspended in RPMI/2% serum and maintained at room temperature. At 30 minutes before each time point, a 56.25 μL aliquot of the neutrophils were removed and loaded for 30 minutes at room temperature in the dark with FLIPR-3 reagent (262.5 μL per tube).

T1 sequence (P25025 whole entry): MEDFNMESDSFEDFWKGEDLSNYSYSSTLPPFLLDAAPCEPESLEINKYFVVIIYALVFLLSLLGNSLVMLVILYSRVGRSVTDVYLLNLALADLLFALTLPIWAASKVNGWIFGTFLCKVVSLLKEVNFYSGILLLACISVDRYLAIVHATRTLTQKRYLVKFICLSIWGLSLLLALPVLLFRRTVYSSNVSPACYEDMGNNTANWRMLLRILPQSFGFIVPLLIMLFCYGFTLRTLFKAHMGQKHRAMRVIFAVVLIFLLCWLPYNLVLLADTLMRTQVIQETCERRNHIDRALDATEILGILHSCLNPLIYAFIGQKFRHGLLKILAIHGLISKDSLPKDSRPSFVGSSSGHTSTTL

Row | Structure (SMILES) | IC50 (CXCR2 [1]) | aqueous solubility (Aqueous solubility) | plasma level [2] | inhibition of β-arrestin recruitment following CXCR2 activation with IL-8 (CXCR2 [3]) | activity on β-arrestin complexation with CXCR2 in the absence of IL8 (CXCR2 [3]) | total neutrophil counts in the blood (neutrophil influx [5]) | further results
1 | COc1ccc(B(O)O)c(CSc2ccc(C(=O)Nc3ccc(F)cc3)cn2)c1 [Compound 4, 6-(2-boronic acid-5-methoxy-benzylsulfanyl)-N-(4-fluoro-phenyl)-nicotinamide] | 79 nM | – | – | – | – | – | –
2 | O=C(Nc1ccc(F)cc1)c1ccc(SCc2ccccc2B(O)O)nc1 [Compound 1, 6-(2-borono-2-yl-benzylsulfanyl)-N-(4-fluoro-phenyl)-nicotinamide] | – | poor | undetected | inhibited arrestin recruitment | acted as inverse agonists | not significantly changed | agonist activity with respect to the release of intracellular calcium (CXCR2 [4]; listed as 1 (SX-517)): did not show agonist activity; agonist activity with respect to the release of intracellular calcium (CXCR2 [4]; listed as SX-517): did not exhibit any agonist activity; neutrophil influx (neutrophil influx [5]; 0.005 and 0.2 p.o., FIG. 4): decrease of neutrophil influx; neutrophil influx (neutrophil influx [5]; doses in excess of 10 mg/kg p.o., FIG. 4): increase in neutrophil influx
3 | O=C(Nc1ccc(F)cc1)c1ccc(SC2CCOC2=O)nc1 (stereo not shown) [Compound 81] | > 5000 nM | – | – | – | – | – | –
4 | O=C(Nc1ccc(F)cc1)c1ccc(SCc2cc(OC(F)(F)F)ccc2B(O)O)nc1 [Compound 2, 6-(2-boronic acid-5-trifluoromethoxy-benzylsulfanyl)-N-(4-fluoro-phenyl)-nicotinamide] | – | poor | undetected | inhibited arrestin recruitment | acted as inverse agonists | not significantly changed | neutrophil influx (neutrophil influx [6]): significantly attenuate neutrophil influx; influx of neutrophils into the lungs ([7]; BALF at 24 h, FIG. 7a): significantly decreased; influx of macrophages into the lungs ([7]; BALF at 24 h, FIG. 7b): significantly decreased; ozone-induced lung damage (protein levels in the BALF) ([7]; FIG. 7c): protected against ozone-induced lung damage; bioavailability following oral administration ([2]; Beagle dogs, 5 mg/kg oral in Gelucire 44/14): improved; inhibition of GROα mediated intracellular calcium release after inhibitor washout (CXCR2 [8]): dose-dependent and wash-resistant inhibition; neutrophil influx (neutrophil influx [5]; 0.05 mg/kg p.o., FIG. 5): decrease of neutrophil influx; neutrophil influx (neutrophil influx [5]; doses in excess of 1 mg/kg p.o., FIG. 5): increase in neutrophil influx
5 | Cc1nn(-c2ccccc2)nc1CSc1ccc(C(=O)Nc2ccc(F)cc2)cn1 [Compound 48] | > 5000 nM | – | – | – | – | – | –
